Values of other authors, collected in patent US20030083378A1, “Eye drops” (priority 2000, published 2003).

How the values were obtained:
respiratory anaphylaxis = conditions: Japanese Unexamined Patent Publication No. Hei 2-1459
leukotrienes = conditions: Japanese Unexamined Patent Publication No. Hei 2-1459

CCCc1c(SCCCOc2ccc(C(C)=O)c(OCCCC(=O)O)c2CCC)ccc(C(C)=O)c1O [KCA-757, 4-[6-acetyl-3-[3-[(4-acetyl-3-hydroxy-2-propylphenyl)thio]propoxy]-2-propylphenoxy]butyric acid]
Inhibitory function on respiratory anaphylaxis (respiratory anaphylaxis): inhibitory function on respiratory anaphylaxis
Leukotriene antagonist activity (leukotrienes): potent and selective leukotriene antagonist activity
Solubility: slightly soluble
